Measurements as given in patent US9101600B2, “Compounds as RORγt modulators and uses thereof” (New York University, priority 2010, dated 2015).

Legend:
[1] = tested on: mouse Th17 cell differentiation; experiment: Cytokine induced mouse Th17 cell differentiation (IL17a production, FACS); format: cell-based; details: for effect on mouse Th17 cell differentiation / IL-17a in mouse CD4 T cells (in words): IL-6 and TGF-β
Description: Cytokine induced mouse Th17 cells differentiation. Effects on mouse endogenous RORγt in a relevant physiological setting were determined by testing compounds in the Th17 cell differentiation assay. […] Th1 or regulatory T cell differentiation was used as a counter-screen method to select specific compounds that only affect Th17 cell differentiation without having pleiotrophic effects on general T cell proliferation or cytokine production.
Naive CD4 T cells were cultured with CD3/CD28 stimulatory antibodies in presence of TGFβ and IL6. Compounds were added on Day 1 and cells were analyzed on Day 4. Numbers shown in Table 3 indicate the percentage of mouse Th17 cells.
CD25^−, CD62L^+, and CD44^int-high cells were sorted from B6 mice.

[2] = biological target: T1, RORγ/γt (Mus musculus, UniProt P51450, T352K); experiment: RORγ/γt-luc reporter S2 cell assay / HTS (firefly luciferase); details: for 80% Inhib. @: RORγ/γt reporter, S2 cells, concentration for 80% inhibition; for RORγ/γt reporter activity (in words): S2 cell reporter; for Curve Class: RORγ/γt HTS concentration response curve class
T1 sequence (P51450 with tags, fused parts or gaps T352K): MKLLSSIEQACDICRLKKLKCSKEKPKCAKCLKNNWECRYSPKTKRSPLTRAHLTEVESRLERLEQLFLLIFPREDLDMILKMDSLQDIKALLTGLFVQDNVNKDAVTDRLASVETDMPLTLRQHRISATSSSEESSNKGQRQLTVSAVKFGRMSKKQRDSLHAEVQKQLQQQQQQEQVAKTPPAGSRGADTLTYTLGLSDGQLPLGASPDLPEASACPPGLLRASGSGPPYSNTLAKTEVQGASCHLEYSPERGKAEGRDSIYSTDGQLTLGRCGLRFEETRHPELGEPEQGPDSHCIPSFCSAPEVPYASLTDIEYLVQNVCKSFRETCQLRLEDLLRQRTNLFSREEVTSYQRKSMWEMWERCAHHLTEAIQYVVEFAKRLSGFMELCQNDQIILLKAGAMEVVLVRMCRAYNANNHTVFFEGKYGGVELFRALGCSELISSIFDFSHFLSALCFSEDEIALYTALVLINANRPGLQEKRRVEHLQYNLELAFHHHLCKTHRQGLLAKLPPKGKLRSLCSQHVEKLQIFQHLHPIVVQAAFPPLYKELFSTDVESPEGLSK
Description: The Drosophila S2 cell line was originally purchased from Invitrogen and was maintained in Schneider's medium supplemented with 10% heat-inactivated bovine fetal calf serum and antibiotics (Invitrogen). Gal4 DNA binding domain (G4 DBD) corresponding to amino acids 1 through 147 of Gal4 protein was PCR amplified to make a fusion construct with mouse RORγt (amino acids 79 to the carboxyl terminal end) lacking its DNA binding domain. The resulting chimeric gene was subcloned into the copper inducible pMT/V5-His A vector (available from Invitrogen). In a similar manner, Gal4 fusion constructs were prepared with mouse RORα (amino acids 142 to end) or Drosophila DHR3 (amino acids 120 to end).
In order to generate stable cell lines, cells were co-transfected with pMT-G4 DBD-RORγt, pMT-G4 DBD-RORα, pMT-G4 DBD-DHR3, or pMT-G4DBDVP16 and pHygro plasmids (Invitrogen) and screened for resistant colonies in the presence of hygromycin (0.3 mg/mL). More than 150 independent RORγ stable clones with luciferase reporters (pMt-RORγ_luc) were tested for their suitability for the high-throughput screening (HTS) based on the following criteria: high signal-to background ratio in 384- and 1,536-well plates, their high induction rate upon the addition of copper, and RORγ/γt specificity probed by the dsRORγ- or RORγ/γt antagonist-mediated suppression. Positive clones were further transfected with pUAST-firefly luciferase, polIII-Renilla luciferase, and pCoPuro (Iwaki, Figuera et al. 2003) (“Rapid selection of Drosophila S2 cells with the puromycin resistance gene.” Biotechniques 35(3): 482-4, 486.) and selected with puromycin (2.5 ug/ml). […] Using similar methods, stable clones with genomic integration of the luciferase reporters and other reporters were generated such as pMT-RORα_luc, pMT-DHR3_luc, or pMT-VP16_luc.
600 G4 DBD-RORγ/γt-luc reporter (#25) or G4 DBD-VP16-luc reporter cells were distributed into each well of 1,536-well white bottom plates in 4 μl S2 cell culture volume containing hygromicin (300 μg/ml) and puromycin (2 μg/ml). Small compounds in seven different concentrations range from 46 μM to 1.7 nM were pin-transferred (23 nl) by a robot (Inglese et al., 2006, Proc. Natl. Acad. Sci. 103:11473-8). […] After 20-hour incubation at ambient temperature, 1.5 μl firefly luciferase detection mix was added and the luciferase activities were measured in 10 min. ViewLux luminometers were used for measuring luciferase signal.
Since their cognate DNA binding sites were not well characterized, the DNA binding domains (DBD) of RORγ/γt, RORα(mouse homolog for PORγ), and DHR3 (Drosophila orthologue for ROR family proteins) were replaced with the heterologous yeast GAL4 DBD. The transcriptionally active domain of general transcriptional activator VP16 was also fused with GAL4 DBD.

[3] = tested on: VP16-luc, RORα-luc, and DHR3-luc reporter S2 cell lines; experiment: S2 cell reporter specificity test on other closely related reporters; format: cell-based; details: S2 cell assay
[4] = biological target: T2, RORγ (Homo sapiens, UniProt P51449); experiment: RORγ overexpression dependent IL17a production in human CD4 T cells (RORγt-IRES-GFP transduced); format: cell-based; details: human peripheral blood naive CD4+ T cells, transduced day 1, analyzed day 6
T2 construct: expressed in transfected cells; host or cells: human peripheral blood naive CD4+ T cells, virally transduced
T2 sequence (P51449 1-497 isoform P51449-2): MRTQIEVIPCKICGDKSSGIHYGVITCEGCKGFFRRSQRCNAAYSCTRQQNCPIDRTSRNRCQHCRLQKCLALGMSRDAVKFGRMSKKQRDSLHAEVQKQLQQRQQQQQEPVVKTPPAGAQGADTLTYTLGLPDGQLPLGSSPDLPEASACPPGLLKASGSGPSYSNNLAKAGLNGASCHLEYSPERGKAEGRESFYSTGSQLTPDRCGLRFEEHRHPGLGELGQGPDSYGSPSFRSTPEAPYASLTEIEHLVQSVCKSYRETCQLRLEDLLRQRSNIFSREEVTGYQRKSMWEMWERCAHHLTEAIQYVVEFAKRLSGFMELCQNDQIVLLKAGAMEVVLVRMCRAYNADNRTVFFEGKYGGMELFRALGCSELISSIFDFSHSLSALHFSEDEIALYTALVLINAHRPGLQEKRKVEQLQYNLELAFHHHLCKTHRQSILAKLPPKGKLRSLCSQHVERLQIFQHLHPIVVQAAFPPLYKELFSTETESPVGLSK
Description: ROR dependent Th17 cell differentiation.
GFP expressing cells were gated for analysis. DMSO or compounds were added 6-8 hours after viral transduction.

[5] = biological target: T1, RORγ/γt; experiment: Small-scale screening, G4BD-RORγt stable S2 cells with transient transfection of two luciferase constructs; format: cell-based; set-up: expressed in transfected cells
Description: Promega Dual-Glo system is widely used for HTS as the luciferase substrates. Cell culture medium was reduced to the final volume of 10 μl or less and 10 μl of Dual-glo and 10 μl of Stop-glo luciferase substrates were added in a sequencial manner (Promega). Firefly and Renilla luciferase activity was determined by measuring luminescence signals using an automated 384-well plate reader equipped with multiple stack units (such as the Analyst GT or Envision plate readers).

[6] = tested on: human naive cord blood T cells; experiment: Human Th17 cell differentiation, naive cord blood T cells (IL-17a and IFN-γ, flow cytometry); format: cell-based; details: six days, IL2, IL23, ILβ, TGFβ
Excerpt: Human Th17 cell differentiation. Compound effects on human RORγt will be tested by treating human cord blood CD4 T cells with select compounds to determine if such compounds alter differentiation into Th17 lineages.

[7] = 20 μM, DMSO 17% Th17, compound added Day 1, analyzed Day 4
[8] = 5 μM, DMSO 25% Th17, compound added Day 1, analyzed Day 4
[9] = at 10 uM (Table 4, printed in 20 μM column)

Row | IC50 [2] | 80% Inhib. @ [2] | SMILES | percentage of mouse Th17 cells (IL17a production) [1, 7] | percentage of mouse Th17 cells (IL17a production) [1, 8] | further results
1 |  |  | CCOc1ccc(-c2cc(CCCC(=O)NCc3cccnc3)no2)cc1 [MLS000118457-02] | 10.7% |  | 
2 | 2.61 µM | 7.292 µM | O=C(/C=C/c1ccc(S(=O)(=O)N2CCOCC2)cc1)NC(=S)Nc1ccc(N2CCOCC2)cc1 [MLS000402315-02] | 4.8% |  | 
3 |  |  | Cc1nn(-c2cc(C)c3ccccc3n2)c2c1C1C(C2)C1(C)C (stereo not drawn) [MLS000526165-02] | 8.3% |  | 
4 | 0.134 µM | 0.4389 µM | CCOC(=O)c1sc(NC(=O)c2cc3c(s2)CCC(C)C3)nc1C (stereo not drawn) [MLS000566729-02] | 12.1% | 16.3% | 
5 |  |  | CCOC(=O)C1CCN(CC(=O)Nc2cc(C)nn2-c2nc3ccccc3s2)CC1 [MLS000569401-02] |  | 15% | 
6 | 17.8 µM | 62.17 µM | O=C(NC(=S)Nc1nc(-c2ccccc2)cs1)c1cccnc1 [MLS000592121-02] | 27.7% | 27.7% | 
7 | 13.4 µM | 35.57 µM | COc1ccc(OC)c(NC(=S)N(CCc2c(C)[nH]c3ccccc23)Cc2cccs2)c1 [MLS000696943-02] | 3.1% | 13.9% | 
8 |  |  | Cc1cccc(-c2nc3cc(NC(=O)C4CCCO4)ccc3o2)c1 (stereo not drawn) [MLS000700815-02] | 11.9% |  | 
9 |  |  | C[C@H]1[C@H](C)CC[C@]2(C(=O)O)CC[C@]3(C)C(=CC[C@@H]4[C@@]5(C)CC[C@H](O)C(C)(C)[C@@H]5CC[C@]43C)[C@H]12 [MLS000728569-02] | dead | 3.7% | 
10 | 8.67 µM | 12.38 µM | O=C(CCCOc1ccccc1)Nc1nc2ccccc2[nH]1 [MLS000772650-02] | 9.9% | 16.9% | 
11 |  |  | C=C(NC(=O)c1ccccc1)N1CCN(c2ncc3c(=O)c(C(=O)O)cn(CC)c3n2)CC1 [MLS000777984-02] | 8.9% |  | effect on mouse Th17 cell differentiation / IL-17a in mouse CD4 T cells (in words) [1]: RORγt specific inhibitory effects
12 |  |  | Cc1cc(C)n(-c2nc(SCC(=O)O)c3c4c(sc3n2)CCCC4)n1 [MLS000778763-02] | 10.2% |  | 
13 | 1.6 µM | 8.843 µM | O=C(CCCN1C(=O)/C(=C/c2ccccc2Cl)SC1=S)Nc1cccnc1 [MLS001034558-02] | dead | 14.3% | 
14 | 0.543 µM | 1.646 µM | COc1ccc(C(=O)/C=C/c2ccc(OC)cc2OC)c(O)c1 [MLS001048850-02] | 11.9% |  | 
15 |  |  | CCOC(=O)[C@@H]1[C@H]2COc3ccc(Br)cc3[C@@H]2N2C(=O)N(c3ccccc3)C(=O)[C@@]12C [MLS001066232-01] |  |  | AC50 [2]: 10 µM; Curve Class [2]: −2.1; RORγ/γt reporter activity (in words) [2]: inhibition of RORγ reporter; activity of other closely related reporters (in words) [3]: without affecting the activity; percentage of mouse Th17 cells (IL17a production) [1, 9]: 10.4 (at 10 uM) %; RORγ overexpression dependent IL17a production (in words) [4]: inhibit
16 | 38.7 µM | 161.2 µM | CC(C)[C@@H](NC(=O)C1CCN(C(=O)[C@@H]2CCCN2C(=O)OC(C)(C)C)CC1)C(=O)NCc1ccc(F)cc1 [MLS001141034-02] |  |  | 
17 | 14.7 µM | 45.85 µM | COc1ccccc1CNC(=O)[C@@H](NC(=O)C1CCN(C(=O)[C@@H]2CCCN2C(=O)OC(C)(C)C)CC1)C(C)C [MLS001157801-02] |  |  | 
18 | 16.7 µM | 40.36 µM | CN1CCN(C(=O)CCN2C(=O)/C(=C\c3ccccc3F)SC2=S)CC1 [MLS001201644-02] |  |  | 
19 |  |  | CC(C)(C)c1ccc(-c2noc(CCC(=O)Nc3cccnc3)n2)cc1 [MLS001217081-02] | 8.3% |  | 
20 |  |  | CCOC(=O)[C@@H]1[C@H]2COc3ccc(Br)cc3[C@@H]2N2C(=O)N(c3ccc(C)cc3)C(=O)[C@]12C [MLS0010660292-01] |  |  | AC50 [2]: 11.2 µM; Curve Class [2]: 4
21 |  |  | CC(=O)[C@@]1(O)CC[C@H]2[C@H]3C[C@@H](C)C4=CC(=O)C=C[C@]4(C)[C@@]3(F)[C@@H](O)C[C@]21C [NCGC00016442-02] | 2.6% | 4.8% | 
22 | 0.281 µM | 0.7759 µM | Cc1ccc(Sc2cncc3sc(C(N)=O)cc23)cc1 [NCGC00167761-02] | 3.6% | 11.6% | 
23 |  |  | C[C@H]1O[C@@H](O[C@H]2[C@@H](O)C[C@H](O[C@H]3[C@@H](O)C[C@H](O[C@H]4CC[C@@]5(C)[C@H](CC[C@@H]6[C@@H]5CC[C@]5(C)[C@@H](C7=CC(=O)OC7)CC[C@]65O)C4)O[C@@H]3C)O[C@@H]2C)C[C@H](O)[C@@H]1O [digitoxin] |  |  | RORγ/γt antagonist identification (in words) [5]: specific RORγ/γt antagonists
24 |  |  | CC1OC(OC2C(O)CC(OC3C(O)CC(OC4CCC5(C)C(CCC6C5CC(O)C5(C)C(C7=CC(=O)OC7)CCC65O)C4)OC3C)OC2C)CC(O)C1O (stereo not drawn) [digoxin, reference compound] |  |  | Th17 (percentage of mouse Th17 cells) ([1]; 10 μM, DMSO 26% (Table 5)): 0.91%
25 |  |  | C[C@H]1[C@H](C)CC[C@]2(C(=O)O)CC[C@]3(C)C(=CC[C@@H]4[C@@]5(C)CC[C@H](O)C(C)(C)[C@@H]5CC[C@]43C)[C@H]12 [ursolic acid] |  |  | effect on human CD4 T cell cytokine production (in words) [6]: RORγt specific inhibitory effects; effect on mouse Th17 cell differentiation / IL-17a in mouse CD4 T cells (in words) [1]: RORγt specific inhibitory effects

Row | SMILES | IC50 [2] | 80% Inhib. @ [2] | percentage of mouse Th17 cells (IL17a production) [1, 7] | percentage of mouse Th17 cells (IL17a production) [1, 8] | further results
26 | C=C1NN=C(c2ccccc2Br)N1N=Cc1ccc(N(CC)CC)cc1 [MLS000767819-02] | 2.78 µM | 7.562 µM | 10.2% |  | RORγ/γt reporter activity (in words) [2]: suppression of RORγ reporter activity; activity of other closely related reporters (in words) [3]: without having effects
27 | CCOC(=O)[C@@H]1[C@H]2COc3cc(OC)ccc3[C@@H]2N2C(=O)N(c3ccc(C)cc3)C(=O)[C@@]12C [MLS001066267-01] | 5 µM | 10 µM |  |  | AC50 [2]: 5.01 µM; Curve Class [2]: −2.1; percentage of mouse Th17 cells (IL17a production) [1, 9]: 13.5 (at 10 uM) %; RORγ overexpression dependent IL17a production (in words) [4]: inhibit
28 | CO[C@H]1[C@@H](O)CC(OC2[C@@H](O)CC(OC3[C@@H](O)C[C@H](OC4CC[C@@]5(C)C(CCC6C5CC(O)[C@]5(C)[C@H](C7=CC(=O)OC7)CCC65O)C4)O[C@@H]3C)O[C@@H]2C)O[C@@H]1C (stereo partly drawn) [NCGC00168746-02] | 1.99 µM | 6.27 µM | 1.2% | 4.5% | 
